Measurements from US11938139B2, “Pharmaceutical compositions and methods for anxiety, depression and other psychiatric disorders” (LA PharmaTech Inc., priority 2019, dated 2024).

Tests used:
Type in all cases: in vivo, human
[1] = tested on: patient with major depressive disorder and agitation; experiment: Clinical case, Example 3: patient; conditions: person; disorder for about 2 years; fluoxetine alone, alprazolam 2.0 mg/daily alone
Description: (§1) The inventors believe the hypothesis as explained in example 1 above is applicable here as well. In this case, the composition of two mechanisms of action for two different classes of diseases provided a new solution for treating […] major depressive disorder and agitation which could not be treated with other options, such traditional SSRIs, NSRIs, benzodiazepines, and the like alone.

[2] = tested on: patient with generalized anxiety disorder, panic disorder, and agitation; experiment: Clinical case, Example 1: patient; conditions: person; fluoxetine alone 4 months, sertraline alone 6 months, alprazolam 2.0 mg/daily alone 4 months
Description: A patient had generalized anxiety disorder, panic disorder, and agitation. […] Because azelastine is approved for the treatment of allergic rhinitis and asthma and has never been used to treat patients with depression or anxiety, this dramatic clinical outcome from this composition is unexpected. […] This way of activating the GABA system may interact more effectively with other neurotransmitter systems, including noradrenergic, serotonergic, cholinergic, and opioidergic systems. […] This composition of two mechanisms of action for two different classes of diseases provided a new solution for treating psychiatric diseases which are incurable by other options, such traditional SSRIs, NSRIs, benzodiazepines, and the like alone.

[3] = tested on: patient with generalized anxiety disorder, agitation and insomnia; experiment: Clinical case, Example 2: patient; conditions: person; disorder for 8 months; alprazolam 2.0 mg/daily alone
Description: as §1, with “generalized anxiety diseases” for “major depressive disorder”, “agitation along with insomnia” for “agitation”

Structure (SMILES) | effectiveness of earlier treatment alone [1] | clinical improvement with single-agent treatment [2] | effectiveness of earlier treatment alone [3]
CNCCC(Oc1ccc(C(F)(F)F)cc1)c1ccccc1 (stereo not drawn) [fluoxetine] | no treatment, including fluoxetine alone from SSRIs or alprazolam (2.0 mg/daily) alone from benzodiazepines, had been effective | no significant clinical improvement | 
CN[C@H]1CC[C@@H](c2ccc(Cl)c(Cl)c2)c2ccccc21 [sertraline] |  | no significant clinical improvement | 
Cc1nnc2n1-c1ccc(Cl)cc1C(c1ccccc1)=NC2 [alprazolam, 8-Chloro-1-methyl-6-phenyl-4H-s-triazolo(4,3-a)(1,4)benzodiazepine] | no treatment, including fluoxetine alone from SSRIs or alprazolam (2.0 mg/daily) alone from benzodiazepines, had been effective | no significant clinical improvement | no treatment had been effective
